Entries after “also recorded” stand apart in the source; their conditions may differ. Peptide text beside a SMILES is read from it.

Assay [1] concerns E. coli 287 (ATCC #11775). In kind it is cell-based.
The subject of assay [2] is E. coli MG1655. Format: cell-based.

In the case of `OC[C@H]1O[C@@H]2O[C@H]3[C@H](O)[C@@H](O)[C@@H](O[C@H]4[C@H](O)[C@@H](O)[C@@H](O[C@H]5[C@H](O)[C@@H](O)[C@@H](O[C@H]6[C@H](O)[C@@H](O)[C@@H](O[C@H]7[C@H](O)[C@@H](O)[C@@H](O[C@H]1[C@H](O)[C@H]2O)O[C@@H]7CO)O[C@@H]6CO)O[C@@H]5CO)O[C@@H]4CO)O[C@@H]3CO` [α-cyclodextrin], in assay [1], the “carbon source utilization result” value is listed as “negative”.

Take `NC(=O)NCCC[C@H](N)C(=O)O` [L-citrulline]: the “suitability as nitrogen source (growth, purple color)” value (“suitability as nitrogen source” below) in assay [2] is listed as “not suitable”.

Take `CC[C@H](C)[C@H](N)C(=O)O` [L-isoleucine]: the “suitability as nitrogen source” value in assay [2] is “not suitable”.

With `CCCC(N)C(=O)O` (stereo not drawn) [2-amino-valeric acid], the “suitability as nitrogen source” value in assay [2] was “not suitable”.

For the compound `O=C1NC(=O)C(=O)C(=O)N1` [alloxan], in assay [2], the “suitability as nitrogen source” value is given as “not suitable”.

For the compound `C[C@@H](N)c1ccccc1` [(R)-(+)-α-phenylethylamine], the “suitability as nitrogen source” value in assay [2] was “not suitable”.

For `NCC(=O)O` [glycine], in assay [2], the “suitability as nitrogen source” value is given as “positive”.

For the compound `O=c1[nH]c(=O)c2[nH]cnc2[nH]1` [xanthine], the “suitability as nitrogen source” value in assay [2] is on record as “not suitable”.

Take `NCC(=O)N[C@@H](CC(N)=O)C(=O)O` [gly-asn] (H-Gly-Asn-OH): in assay [2], the “suitability as nitrogen source” value was “positive”.

As for `CC(O)C(N)=O` (stereo not drawn) [lactamide], in assay [2], the “suitability as nitrogen source” value was “not suitable”.

For the compound `NCCCC[C@@H](N)C(=O)O` [D-lysine], in assay [2], the “suitability as nitrogen source” value is “not suitable”.

For `CCCCN` [n-butylamine], in assay [2], the “suitability as nitrogen source” value was “not suitable”.

Turning to `CCCCCN` [n-amylamine], the “suitability as nitrogen source” value in assay [2] was “not suitable”.

Take `O=C(O)/C=C(/CC(=O)O)C(=O)O` [cis-aconitic acid]: the “carbon source utilization result” value in assay [1] is given as “positive/negative”.

As to `O=C(O)[C@H](O)[C@@H](O)[C@H](O)[C@H](O)CO` [D-gluconic acid], the “carbon source utilization result” value in assay [1] was “positive”.

As to `N=C(N)NCCC[C@H](N)C(=O)O` [L-arginine], the “suitability as nitrogen source” value in assay [2] is given as “positive”.

As for `CCC(N)C(=O)O` (racemic) [DL-α-amino-n-butyric acid], in assay [2], the “suitability as nitrogen source” value is on record as “not suitable”.

Consider `Nc1ncnc2nc[nH]c12` [adenine], for which the “suitability as nitrogen source” value in assay [2] is “not suitable”.

Turning to `CC(=O)N[C@@H]1C(O)O[C@H](CO)[C@@H](O)[C@@H]1O` (stereo partly drawn) [N-acetyl-D-mannosamine], the “suitability as nitrogen source” value in assay [2] is on record as “not suitable”.

Regarding `OC[C@@H](O)[C@H](O)[C@@H](O)CO` [xylitol], in assay [1], the “carbon source utilization result” value was “negative”.

Turning to `NCCc1ccc(O)cc1` [Tyramine], the “suitability as nitrogen source” value in assay [2] was “not suitable”.

With `N[C@@H]1C(O)O[C@H](CO)[C@@H](O)[C@@H]1O` (stereo partly drawn) [D-mannosamine], the “suitability as nitrogen source” value in assay [2] was “weak positive”.

For `Cc1cn([C@H]2C[C@H](O)[C@@H](CO)O2)c(=O)[nH]c1=O` [Thymidine], the “carbon source utilization result” value in assay [1] was “positive”. Further, in assay [2], the “suitability as nitrogen source” value was “not suitable”.

Regarding `CC(C)C[C@H](N)C(=O)O` [L-leucine], the “carbon source utilization result” value in assay [1] was “negative”. For the same compound, the “suitability as nitrogen source” value in assay [2] is listed as “not suitable”.

`CC(O)C(=O)O` (racemic) [D,L-lactic acid]: the “carbon source utilization result” value in assay [1] is “positive”.

As to `Nc1ncnc2c1ncn2[C@@H]1O[C@H](CO)[C@@H](O)[C@H]1O` [Adenosine], in assay [2], the “suitability as nitrogen source” value is reported as “not suitable”.

For the compound `Cl.N` [NH4Cl, ammonium chloride], in assay [2], the “suitability as nitrogen source” value is listed as “positive”.

In the case of `N[C@H]1C(O)O[C@H](CO)[C@@H](O)[C@@H]1O` (stereo partly drawn) [D(+)-glucosamine], in assay [2], the “suitability as nitrogen source” value is given as “positive”.

As to `CC(=O)N[C@H]1C(O)O[C@H](CO)[C@H](O)[C@@H]1O` (stereo partly drawn) [N-acetyl-D-galactosamine], in assay [1], the “carbon source utilization result” value is on record as “positive”. Besides, the “suitability as nitrogen source” value in assay [2] is given as “not suitable”.

Turning to `O=C(O)CC(=O)O` [malonic acid], the “carbon source utilization result” value in assay [1] is “negative”.

For the compound `NCCCC[C@H](N)C(=O)O` [L-lysine], the “suitability as nitrogen source” value in assay [2] is “not suitable”.

Consider `CC(=O)O` [Acetic acid], for which the “carbon source utilization result” value in assay [1] was “positive”.

Consider `C[C@H](N)C(=O)N[C@@H](Cc1cnc[nH]1)C(=O)O` [ala-his] (H-Ala-His-OH), for which the “suitability as nitrogen source” value in assay [2] was “not suitable”.

Consider `CC(N)=O` [acetamide], for which, in assay [2], the “suitability as nitrogen source” value is given as “not suitable”.

In the case of `C[C@H](N)C(=O)N[C@@H](CCC(N)=O)C(=O)O` [ala-gln] (H-Ala-Gln-OH), the “suitability as nitrogen source” value in assay [2] is “positive”.

As to `CC(=O)NCC(=O)O` [N-acetyl-glycine], in assay [2], the “suitability as nitrogen source” value is “not suitable”.

For `C[C@H](N)C(N)=O` [alaninamide], the “carbon source utilization result” value in assay [1] is given as “positive”.

`O=C[C@H](O)[C@@H](O)[C@H](O)[C@H](O)C(=O)O` [D-glucuronic acid]: the “carbon source utilization result” value in assay [1] is recorded as “positive”.

As for `NCCN` [ethylenediamine], the “suitability as nitrogen source” value in assay [2] is reported as “not suitable”.

As for `CSCC[C@H](NC(=O)CN)C(=O)O` [gly-met], the “suitability as nitrogen source” value in assay [2] is on record as “positive”.

For `OC[C@@H](O)[C@@H](O)[C@@H](O)CO` [Adonitol], the “carbon source utilization result” value in assay [1] is “negative”.

As to `C[N+](C)(C)CC(O)CC(=O)[O-]` (racemic) [D,L-carnitine], in assay [1], the “carbon source utilization result” value is listed as “negative”.

Regarding `O=c1[nH]c(=O)c2ncn([C@@H]3O[C@H](CO)[C@@H](O)[C@H]3O)c2[nH]1` [xanthosine], the “suitability as nitrogen source” value in assay [2] is on record as “not suitable”.

For the compound `CCCCCCC(N)C(=O)O` (racemic) [DL-α-amino-caprylic acid], the “suitability as nitrogen source” value in assay [2] is “not suitable”.

For `CC(C)[C@@H](N)C(=O)O` [D-valine], the “suitability as nitrogen source” value in assay [2] is on record as “not suitable”.

Regarding `NC(=O)[C@@H](O)[C@@H](O)[C@H](O)[C@@H](O)C=O` [Glucuronamide], the “suitability as nitrogen source” value in assay [2] is “not suitable”.

As to `CCN` [ethylamine], the “suitability as nitrogen source” value in assay [2] is “not suitable”.

`C=C(CC(=O)O)C(=O)O` [itaconic acid]: the “carbon source utilization result” value in assay [1] is “negative”.

For `O=C(O)CCCO` [γ-hydroxybutyric acid], the “carbon source utilization result” value in assay [1] is given as “negative”.

In the case of `N[C@@H](Cc1ccc(O)cc1)C(=O)O` [L-tyrosine], in assay [2], the “suitability as nitrogen source” value is reported as “not suitable”.

Regarding `Cc1c[nH]c(=O)[nH]c1=O` [thymine], in assay [2], the “suitability as nitrogen source” value is recorded as “not suitable”.

Take `NC(N)=O` [urea]: in assay [2], the “suitability as nitrogen source” value was “not suitable”.

Turning to `N[C@H](CCC(=O)O)C(=O)O` [D-glutamic acid], the “suitability as nitrogen source” value in assay [2] is given as “not suitable”.

Take `NCC(=O)N[C@@H](CCC(N)=O)C(=O)O` [gly-gln] (H-Gly-Gln-OH): in assay [2], the “suitability as nitrogen source” value is “positive”.

`CC(C)[C@H](N)C(=O)O` [L-valine]: in assay [2], the “suitability as nitrogen source” value is “not suitable”.

Consider `O=C(O)CNC(=O)c1ccccc1` [hippuric acid], for which the “suitability as nitrogen source” value in assay [2] was “not suitable”.

Turning to `CCCC(=O)C(=O)O` [α-ketovaleric acid], in assay [1], the “carbon source utilization result” value is “negative”.

Regarding `N[C@H]1C(O)O[C@H](CO)[C@H](O)[C@@H]1O` (stereo partly drawn) [D(+)-galactosamine], in assay [2], the “suitability as nitrogen source” value was “weak positive”.

`NC(=O)C[C@@H](N)C(=O)O` [D-asparagine]: the “suitability as nitrogen source” value in assay [2] is “not suitable”.

In the case of `NCCCCN` [putrescine], the “carbon source utilization result” value in assay [1] is recorded as “positive/negative”. For the same compound, in assay [2], the “suitability as nitrogen source” value is “not suitable”.

On to `C[C@H](NC(=O)CN)C(=O)O` [gly-ala] (H-Gly-Ala-OH), for which the “suitability as nitrogen source” value in assay [2] is recorded as “positive”.

With `CSCC[C@H](N)C(=O)N[C@@H](C)C(=O)O` [met-ala] (H-Met-Ala-OH), in assay [2], the “suitability as nitrogen source” value was “not suitable”.

Regarding `O=C(O)/C=C/c1c[nH]cn1` [urocanic acid], the “carbon source utilization result” value in assay [1] is given as “negative; also recorded: equivocal; also recorded: positive”. In assay [2], the “suitability as nitrogen source” value was “not suitable”.

For `OC[C@H]1O[C@@H](O[C@H]2[C@H](O)[C@@H](O)[C@@H](O)O[C@@H]2CO)[C@H](O)[C@@H](O)[C@H]1O` [α-D-lactose], in assay [1], the “carbon source utilization result” value is listed as “positive”.

For the compound `C[C@H](O)[C@H](O)[C@@H](O)[C@@H](O)C=O` [L-rhamnose], the “carbon source utilization result” value in assay [1] is recorded as “positive”.

`C[C@H](N)C(=O)N[C@H](C(=O)O)[C@@H](C)O` [ala-thr] (H-Ala-Thr-OH): the “suitability as nitrogen source” value in assay [2] is “positive”.

As for `NCCc1c[nH]cn1` [histamine], in assay [2], the “suitability as nitrogen source” value is “not suitable”.

`NCC(=O)N[C@@H](CC(=O)O)C(=O)O` [Glycyl-L-aspartic acid] (H-Gly-Asp-OH): the “carbon source utilization result” value in assay [1] is reported as “positive”.

Regarding `NCCCCCC(=O)O` [ε-amino-n-caproic acid], in assay [2], the “suitability as nitrogen source” value was “not suitable”.

As to `NC=O` [formamide], the “suitability as nitrogen source” value in assay [2] is reported as “not suitable”.

`CC(O)C(C)O` (stereo not drawn) [2,3-butanediol]: the “carbon source utilization result” value in assay [1] is “positive/negative”.

As for `O=c1[nH]c(=O)c2[nH]c(=O)[nH]c2[nH]1` [uric acid], the “suitability as nitrogen source” value in assay [2] is on record as “not suitable”.

As to `O=NO` [sodium nitrite], the “suitability as nitrogen source” value in assay [2] is “not suitable”.

In the case of `N[C@@H](CCO)C(=O)O` [L-homoserine], in assay [2], the “suitability as nitrogen source” value is “not suitable”.

In the case of `N=C(N)NCCCCN` [agmatine], the “suitability as nitrogen source” value in assay [2] is listed as “not suitable”.

As to `O=[N+]([O-])[O-].[K+]` [potassium nitrate], in assay [2], the “suitability as nitrogen source” value is “not suitable”.
